Patent US6472415B1, “Androgen receptor suppressors in the therapy and diagnosis of prostate cancer, alopecia and other hyper-androgenic syndromes” (priority 1998, dated 2002)
“Also recorded” adds a separate entry of the source. Like-named read-outs stand apart in the source and are kept apart here.

Assays:
androgen receptor = biological target: T1, androgen receptor (Homo sapiens, UniProt P10275, T878A); assay: Androgen receptor remaining in LNCaP cell lysate, Western Blot; format: cell-based; conditions: for Percent of the androgen receptor remaining / Percent Androgen Receptor Remaining / Effect on the AR: LNCaP; for Percent of the androgen receptor remaining: 48 hours; for Suppression of the AR: 3 μM concentration; for Elimination of the AR: 10 μM concentration; for Percent Androgen Receptor Remaining: Table 7 controls, incubation time not given; for Effect on the AR: Western Blot
T1 construct: endogenous in cells; host or cells: LNCaP human prostate cancer cells
Protocol: The interaction of the compounds with AR was studied by incubation with LNCaP cells, subsequent cell lysis and the standard Western Blot assay.

[1] = Takagi et al. 1991; cited from earlier work
[2] = Tissue distribution 4 hours after intravenous injection in male rats; conditions: 300 g male rats, after 4 hours
[3] = Protocol: Compounds were tested for stability in human serum at 38° C. They were dissolved in isopropanol/H2O (95:5), mixed with human serum to a concentration of 0.5 mg/mL, and incubated at 38° C. Serum aliquots were extracted with ethyl acetate and analyzed by HPLC.
(Permadi, H.; Lundgren, B.; Andersson, K.; Sundberg, C.; DePierre, J. W. Effects of perfluoro fatty acids on peroxisome proliferation and mitochondrial size in mouse liver: dose and time factors and effect of chain length. Xenobiotica, 91993) Vol. 23, No. 7, pp.761-70).

[4] = isopropanol/H2O (95:5), 50° C., up to six days
[5] = test system: prostate and seminal vesicles; assay: Weight of prostate and seminal vesicles (secondary sex organs) in rats; format: in vivo; conditions: for Reduction of secondary sex organs' weight: castrated rats supplemented with testosterone propionate
Protocol: (The dose of 0.1 mg/kg approximates the expected topical daily dose for humans).

[6] = Cockshott et al. 1990; cited from earlier work
Remark: listed apart in the source
[7] = rabbits, 2× daily 0.5 mL of 10% solution in 50/50 PEG 400/EtOH, shaved skin 20 cm^2; HPLC sensitivity 5 nanograms
[8] = not given; remark: listed apart in the source
[9] = i.m., 75 mg/kg bw
androgenic alopecia = conditions: three male volunteers, 1% solution in ethanol
[10] = Systemic toxicity, repeated i.p. injection in mice; format: in vivo; conditions: for Dose with morbidity but no mortality / Dose given without mortality or morbidity: i.p. every 2nd day; for Dose given without mortality or morbidity: 5 times
Protocol: Systemic toxicity was orientationally evaluated by i.p. injection every 2nd day in mice. […] For BP-34, the corresponding values were 150 mg/kg bw and 300 mg/kg bw.
The maximum tolerated dose should thus be approximately 300 mg/kg. For BP-34, i.p. injections of 100-300 mg/kg produce no mortalities in mice. […] Therefore, the maximum tolerated dose of BP-34 should be approximately 250 mg/kg.

[11] = test system: human prostate cancer cells LNCaP; assay: XXT cell viability assay, 72 hours; format: cell-based
Protocol: After 72 hours, an XXT assay (Scudievo, et al., Cancer Research, 48:4827 (1988)) indicating cell viability was carried out.

[12] = Rabbit, skin 20 cm^2, 100 mg/d, 10 d

T1 sequence (P10275 whole entry T878A): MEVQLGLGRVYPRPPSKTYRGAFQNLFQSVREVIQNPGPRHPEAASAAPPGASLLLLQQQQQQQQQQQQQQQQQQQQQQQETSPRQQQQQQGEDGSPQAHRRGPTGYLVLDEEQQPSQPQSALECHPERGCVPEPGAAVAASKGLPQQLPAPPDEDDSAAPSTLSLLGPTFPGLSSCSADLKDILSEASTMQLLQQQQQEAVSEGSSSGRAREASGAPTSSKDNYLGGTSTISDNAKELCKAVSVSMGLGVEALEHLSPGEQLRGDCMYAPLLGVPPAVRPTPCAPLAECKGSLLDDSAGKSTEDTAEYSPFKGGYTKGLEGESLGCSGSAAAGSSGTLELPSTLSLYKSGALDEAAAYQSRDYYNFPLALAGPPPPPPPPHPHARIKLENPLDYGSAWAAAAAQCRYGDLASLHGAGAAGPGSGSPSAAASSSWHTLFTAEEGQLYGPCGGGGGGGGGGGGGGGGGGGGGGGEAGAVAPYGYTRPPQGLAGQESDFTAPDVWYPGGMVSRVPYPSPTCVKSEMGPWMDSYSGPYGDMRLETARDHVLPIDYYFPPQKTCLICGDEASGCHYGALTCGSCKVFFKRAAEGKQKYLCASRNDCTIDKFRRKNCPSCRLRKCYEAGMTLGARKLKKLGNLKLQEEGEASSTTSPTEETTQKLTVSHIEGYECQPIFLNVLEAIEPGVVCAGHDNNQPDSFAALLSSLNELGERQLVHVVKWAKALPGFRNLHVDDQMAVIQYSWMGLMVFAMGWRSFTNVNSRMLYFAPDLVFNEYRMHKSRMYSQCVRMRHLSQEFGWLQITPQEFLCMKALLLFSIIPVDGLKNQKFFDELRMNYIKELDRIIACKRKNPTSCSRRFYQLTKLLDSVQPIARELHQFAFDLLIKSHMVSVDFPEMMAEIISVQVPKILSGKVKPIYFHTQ

Compound: CC(O)(CNCCOCCOCCNCC(C)(O)C(=O)Nc1ccc([N+](=O)[O-])c(C(F)(F)F)c1)C(=O)Nc1ccc([N+](=O)[O-])c(C(F)(F)F)c1 (stereo not shown) [BP-676]
- Percent of the androgen receptor remaining (androgen receptor; 3μ Molar conc.): 64%
- Percent of the androgen receptor remaining (androgen receptor; 10μ Molar conc.): 20%

Compound: O=C(O)C(F)(F)C(F)(F)C(F)(F)F [perfluorobutyric acid]
- Toxicity [1]: low toxicity

Compound: CC(O)(COC/C=C/[125I])C(=O)Nc1ccc(C#N)c(C(F)(F)F)c1 (stereo not shown) [BP-636]
- Accumulation in the prostate vis-a-vis other tissues [2]: substantial accumulation in the prostate

Compound: CC(O)(CSCC=C([125I])[125I])C(=O)Nc1ccc(C#N)c(C(F)(F)F)c1 (stereo not shown) [BP-554]
- Accumulation in the prostate vis-a-vis other tissues [2]: substantial accumulation in the prostate

Compound: CC(O)(CNCC(C)(O)C(=O)Nc1ccc([N+](=O)[O-])c(C(F)(F)F)c1)C(=O)Nc1ccc([N+](=O)[O-])c(C(F)(F)F)c1 (stereo not shown) [BP-673, 2-hydroxy-3-((2-hydroxy-2-(N-(4-nitro-3-(trifluoromethyl)phenyl)carbamoyl)propyl)amino)-2-methyl-N-(4-nitro-3-(trifluoromethyl)phenyl)propionamide]
- Percent of the intact compound remaining in human serum ([3]; 38° C., 0.5 mg/mL, 24 h): 100%
- Percent of the intact compound remaining in human serum ([3]; 38° C., 0.5 mg/mL, 48 h): 100%
- Percent of the intact compound remaining in human serum ([3]; 38° C., 0.5 mg/mL, 6 d): 100%
- Change via HPLC in accelerated stability study [4]: no change was observed
- Suppression of the AR (androgen receptor): important suppression
- Elimination of the AR (androgen receptor): practically eliminated the AR
- Percent of the androgen receptor remaining (androgen receptor; 3μ Molar conc.): 74%
- Percent of the androgen receptor remaining (androgen receptor; 10μ Molar conc.): 3%

Compound: CC(O)(CNC(=O)Nc1ccc(I)cc1)C(=O)Nc1ccc([N+](=O)[O-])c(C(F)(F)F)c1 (stereo not shown) [BP-754]
- Percent of the androgen receptor remaining (androgen receptor; 3μ Molar conc.): 28%
- Percent of the androgen receptor remaining (androgen receptor; 10μ Molar conc.): 14%

Compound: CC(O)(CS(=O)(=O)c1ccc(F)cc1)C(=O)Nc1ccc(C#N)c(C(F)(F)F)c1 (stereo not shown) [Bicalutamide, reference compound]
- Reduction of secondary sex organs' weight ([5]; 0.5 mg/kg): about 20%
- Peak serum levels as % of the dose, reported [6]: 0.03%

Compound: CCCNC(=S)Nc1ccc(C#N)c(C(F)(F)F)c1 [BP-735, N-(3-trifluoromethyl-4-cyanophenyl), N′-propyl thiourea]
- Suppression of the AR (androgen receptor): important suppression
- Elimination of the AR (androgen receptor): practically eliminated the AR
- Percent of the androgen receptor remaining (androgen receptor; 3μ Molar conc.): 45%
- Percent of the androgen receptor remaining (androgen receptor; 10μ Molar conc.): 1%

Compound: CC(O)(CNC(=S)Nc1ccc(Br)cc1)C(=O)Nc1ccc([N+](=O)[O-])c(C(F)(F)F)c1 (stereo not shown) [BP-668, 3-((((4-bromophenyl)amino)thioxomethyl)amino)-2-hydroxy-2-methyl-N-(4-nitro-3-(trifluoromethyl)phenyl)propanamide]
- Reduction of secondary sex organs' weight ([5]; 0.1 mg/kg): did not reduce
- Percent of the intact compound remaining in human serum ([3]; 38° C., 0.5 mg/mL, 24 h): 100%
- Percent of the intact compound remaining in human serum ([3]; 38° C., 0.5 mg/mL, 48 h): 100%
- Percent of the intact compound remaining in human serum ([3]; 38° C., 0.5 mg/mL, 6 d): 100%
- Change via HPLC in accelerated stability study [4]: no change was observed
- Suppression of the AR (androgen receptor): important suppression
- Elimination of the AR (androgen receptor): practically eliminated the AR
- Percent of the androgen receptor remaining (androgen receptor; 3μ Molar conc.): 73%
- Percent of the androgen receptor remaining (androgen receptor; 10μ Molar conc.): 0%
- melting point: 192 to 195 °C

Compound: CC(O)(CNC(=O)C(F)(F)C(F)(F)C(F)(F)F)C(=O)Nc1ccc([N+](=O)[O-])c(C(F)(F)F)c1 (stereo not shown) [BP-521, 4-nitro-3-trifluoromethyl-N-(2′-hydroxy-2′-methyl-3′-N-(heptafluorobutyramido)propionyl)aniline]
- Reduction of secondary sex organs' weight ([5]; 0.1 mg/kg): did not reduce
- Reduction of average weight of prostate and seminal vesicles ([5]; intact rats, 10 times subcutaneously 100 mg/kg): about 46%
- Topical absorption [7]: No absorption was found
- Percent of the intact compound remaining in human serum ([3]; human, serum, 6 h): 97.5%
- Percent of the intact compound remaining in human serum ([3]; human, serum, 24 h): 90.0%
- Percent of the intact compound remaining in human serum ([3]; human, serum, 48 h): 84.0%
- Percent of the intact compound remaining in human serum ([3]; human, serum, 144 h): 60.0%
- μg/ml blood ([8]; Rabbit ~3 kg, i.p., 150 mg/kg bw, 0.5 hrs): 1.9 µg/mL
- μg/ml blood ([8]; Rabbit ~3 kg, oral, 100 mg/kg bw, 0.5 hrs): 1.5 µg/mL
- μg/ml blood ([8]; Rabbit ~3 kg, skin 20 cm^2, 100 mg/d, 10 d, 0.5 hrs): 0 µg/mL
- Cumulative % dose ([8]; Rabbit, i.p., 150 mg/kg bw): 2.8%
- Cumulative mg/total blood volume ([8]; Rabbit, i.p., 150 mg/kg bw): 11.6 µg
- μg/ml blood ([8]; Rabbit, i.p., 150 mg/kg bw, 1.0 hrs): 3.2 µg/mL
- μg/ml blood ([8]; Rabbit, i.p., 150 mg/kg bw, 1.5 hrs): 1.9 µg/mL
- μg/ml blood ([8]; Rabbit, i.p., 150 mg/kg bw, 2.5 hrs): 1.5 µg/mL
- μg/ml blood ([8]; Rabbit, i.p., 150 mg/kg bw, 7.0 hrs): 3.0 µg/mL
- μg/ml blood ([8]; Rabbit, i.p., 150 mg/kg bw, 24 hrs): 2.2 µg/mL
- Cumulative % dose ([8]; Rabbit, oral, 100 mg/kg bw): 1.50%
- Cumulative mg/total blood volume ([8]; Rabbit, oral, 100 mg/kg bw): 3.0 µg
- μg/ml blood ([8]; Rabbit, oral, 100 mg/kg bw, 1.0 hrs): 1.7 µg/mL
- μg/ml blood ([8]; Rabbit, oral, 100 mg/kg bw, 1.5 hrs): 2.6 µg/mL
- μg/ml blood ([8]; Rabbit, oral, 100 mg/kg bw, 2.5 hrs): 1.5 µg/mL
- μg/ml blood ([8]; Rabbit, oral, 100 mg/kg bw, 7.0 hrs): 1.0 µg/mL
- μg/ml blood ([8]; Rabbit, oral, 100 mg/kg bw, 24 hrs): 1.0 µg/mL
- Cumulative % dose [8, 12]: 0%
- Cumulative mg/total blood volume [8, 12]: 0 µg
- μg/ml blood ([8]; Rabbit, skin 20 cm^2, 100 mg/d, 10 d, 1.0 hrs): 0 µg/mL
- μg/ml blood ([8]; Rabbit, skin 20 cm^2, 100 mg/d, 10 d, 1.5 hrs): 0 µg/mL
- μg/ml blood ([8]; Rabbit, skin 20 cm^2, 100 mg/d, 10 d, 2.5 hrs): 0 µg/mL
- μg/ml blood ([8]; Rabbit, skin 20 cm^2, 100 mg/d, 10 d, 7.0 hrs): 0 µg/mL
- μg/ml blood ([8]; Rabbit, skin 20 cm^2, 100 mg/d, 10 d, 24 hrs): 0 µg/mL
- Bioavailability ([8]; from the subcutaneous, muscle and intraperitoneal spaces): low
- Peak serum levels as % of the injected dose ([8]; oral test): 0.0052%
- μg/ml blood ([9]; Rat ~140 g, 0.5 hrs): 0.7 µg/mL
- Cumulative % dose ([9]; Rat): 2.9%
- Cumulative mg/total blood volume ([9]; Rat): 2.1 µg
- μg/ml blood ([9]; Rat, 1.0 hrs): 4.7 µg/mL
- μg/ml blood ([9]; Rat, 1.5 hrs): 2.2 µg/mL
- μg/ml blood ([9]; Rat, 24 hrs): 1.0 µg/mL
- Effect on incipient androgenic alopecia of the forehead line (androgenic alopecia; 0.5 mL twice daily on scalp): effectively arrested incipient androgenic alopecia
- Hair growth (androgenic alopecia; 0.5 mL twice daily, after 8 weeks): induced copious growth of vellum hair
- Dose with morbidity but no mortality [10]: 350 mg/kg bw
- Dose given without mortality or morbidity [10]: 200 mg/kg bw

Compound: CC(C)(O)C(=O)Nc1ccc([N+](=O)[O-])c(C(F)(F)F)c1 [Hydroxyflutamide, reference compound]
- Percent Androgen Receptor Remaining (androgen receptor; 3μ Molar conc): 98%
- Percent of the androgen receptor remaining (androgen receptor; 3μ Molar conc.): 98%
- Percent Androgen Receptor Remaining (androgen receptor; 10μ Molar conc): 94%
- Percent of the androgen receptor remaining (androgen receptor; 10μ Molar conc.): 94%
- Effect on the AR (androgen receptor): have not shown any significant effect on the AR; also recorded: have not shown any significant suppression of the AR

Compound: CC(O)(CN)C(=O)Nc1ccc([N+](=O)[O-])c(C(F)(F)F)c1 (stereo not shown) [BP-34, 4-nitro-3-trifluoromethyl-N-(2-hydroxy-2-methyl-3-aminopropionyl)aniline]
- Percent Androgen Receptor Remaining (androgen receptor; 3μ Molar conc): 97%
- Percent of the androgen receptor remaining (androgen receptor; 3μ Molar conc.): 97%
- Percent Androgen Receptor Remaining (androgen receptor; 10μ Molar conc): 98%
- Percent of the androgen receptor remaining (androgen receptor; 10μ Molar conc.): 98%
- Effect on the AR (androgen receptor): no effect
- Effect on the LNCaP cells [11]: no effect
- Dose with morbidity, but not mortality ([10]; i.p.): 300 mg/kg
- i.p. doses producing no mortalities ([10]; i.p.): 100 to 300 mg/kg
- Dose with morbidity but no mortality [10]: 300 mg/kg bw
- Dose given without mortality or morbidity [10]: 150 mg/kg bw
- MTD ([10]; mouse, in vivo, ip, read-out: Maximum tolerated dose): ~250 mg/kg

Compound: CC(O)(CNCC(C)(O)C(=O)Nc1ccc(Cl)cc1)C(=O)Nc1ccc(Cl)cc1 (stereo not shown)
- melting point: 76 to 78 °C
